# Reference: patent US10633419B2, “Immunomodulators” (BRISTOL-MYERS SQUIBB COMPANY, priority 2014, dated 2020)
# pIC50: −log10 of the molar value. Positions of bridges follow the written chain, without caps; N, C: chain ends. Non-standard residues stand in square brackets, D forms with d. Residues, ends and D or L forms follow the SMILES beside them. *: point of attachment. X28 = O=C(O)CCCCCCCCCCNC(=O)CCC(=O)NCCCOCCOCCOCCCNC(=O)CCC(=O)NCCCOCCOCCOCCCN*; Ala(1-CH2COOH-inden-3-yl) = N[C@@H](CC1=CC(CC(=O)O)c2ccccc21)C(=O)O; X15 = O=C(O)CCCCCCCCCCNC(=O)CCCCCCCCCCNC(=O)CCC(=O)NCCCOCCOCCOCCCN*; Trp(1-CH2COOH) = N[C@@H](Cc1cn(CC(=O)O)c2ccccc12)C(=O)O; X14 = O=C(O)CCCCCCCCCCNC(=O)CCC(=O)NCCCOCCOCCOCCCN*; Hyp = O=C(O)[C@@H]1C[C@@H](O)CN1; NMeNle = CCCC[C@H](NC)C(=O)O; AEEEA = NCCOCCOCCOCC(=O)O; NMeA = CN[C@@H](C)C(=O)O; Aun = NCCCCCCCCCCC(=O)O; Dab = NCC[C@H](N)C(=O)O; Dap = NC[C@H](N)C(=O)O
# Target: T1, PD-L1 (Homo sapiens, UniProt Q9NZQ7)
# T1 construct: hPDL1(19-239)-TVMV-His; made in house; host or cells: HEK293T
# Assay: PD-1/PD-L1 Homogenous Time-Resolved Fluorescence (HTRF) binding assay (PD-1-Ig/PD-L1-His)
# Settings: inhibition of PD-1-Ig binding to PD-L1-TVMV-His; value given as number; read-out: HTRF IC50
# Outline: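 Inhibitors pre-incubated 15 min with PD-L1-His (10 nM final), then PD-1-Ig (20 nM final) added for 15 min in dPBS/0.1% BSA/0.05% Tween-20. Eu-cryptate anti-Ig (1 nM) and APC anti-His (20 nM) added, 30 min equilibration, 665/620 nm HTRF ratio read.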
# T1 sequence (Q9NZQ7 with tags, fused parts or gaps): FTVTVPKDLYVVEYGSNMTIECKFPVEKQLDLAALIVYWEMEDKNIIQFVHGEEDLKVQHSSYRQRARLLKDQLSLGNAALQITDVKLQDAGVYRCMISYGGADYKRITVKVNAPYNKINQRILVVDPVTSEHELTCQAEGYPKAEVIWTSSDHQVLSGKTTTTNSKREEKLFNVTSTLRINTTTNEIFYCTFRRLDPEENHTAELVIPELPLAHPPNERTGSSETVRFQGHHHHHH
row,pIC50,SMILES
1,8.15,CCCC[C@H]1C(=O)N(C)[C@@H](CCCC)C(=O)N[C@@H](CC(C)C)C(=O)N[C@H](C(=O)NCCCOCCOCCOCCCNC(=O)CCC(=O)NCCCCCCCCCCC(=O)O)CSCC(=O)N[C@@H](Cc2ccc(O)cc2)C(=O)N(C)[C@@H](C)C(=O)N[C@@H](CC(N)=O)C(=O)N2CCC[C@H]2C(=O)N[C@@H](Cc2cnc[nH]2)C(=O)N[C@@H](CCC(=O)O)C(=O)N2C[C@H](O)C[C@H]2C(=O)N[C@@H](Cc2c[nH]c3ccccc23)C(=O)N[C@@H](CCN)C(=O)N[C@@H](Cc2cn(CC(=O)O)c3ccccc23)C(=O)N1C [Example 11075] ({CH2CO}-Y[NMeA]NPHE[Hyp]W[Dab][Trp(1-CH2COOH)][NMeNle][NMeNle]LC-X14; thioether N-14)
2,7.90,CCCC[C@H]1C(=O)N(C)[C@@H](CCCC)C(=O)N[C@@H](CCC(=O)O)C(=O)N[C@H](C(=O)NCCCOCCOCCOCCCNC(=O)CCC(=O)NCCCCCCCCCCC(=O)O)CSCC(=O)N[C@@H](Cc2ccc(O)cc2)C(=O)N(C)[C@@H](C)C(=O)N[C@@H](CC(N)=O)C(=O)N2CCC[C@H]2C(=O)N[C@@H](Cc2cnc[nH]2)C(=O)N[C@@H](CCCCN)C(=O)N2C[C@H](O)C[C@H]2C(=O)N[C@@H](Cc2c[nH]c3ccccc23)C(=O)N[C@@H](CO)C(=O)N[C@@H](Cc2cn(CC(=O)O)c3ccccc23)C(=O)N1C [Example 11080] ({CH2CO}-Y[NMeA]NPHK[Hyp]WS[Trp(1-CH2COOH)][NMeNle][NMeNle]EC-X14; thioether N-14)
3,7.72,CCCC[C@H]1C(=O)N(C)[C@@H](CCCC)C(=O)N[C@@H](CC(C)C)C(=O)N[C@H](C(=O)NCCCOCCOCCOCCCNC(=O)CCC(=O)NCCCCCCCCCCC(=O)O)CSCC(=O)N[C@@H](Cc2ccc(O)cc2)C(=O)N(C)[C@@H](C)C(=O)N[C@@H](CC(N)=O)C(=O)N2CCC[C@H]2C(=O)N[C@@H](CN)C(=O)N[C@@H](CCC(N)=O)C(=O)N2C[C@H](O)C[C@H]2C(=O)N[C@@H](Cc2c[nH]c3ccccc23)C(=O)N[C@@H](CO)C(=O)N[C@@H](Cc2cn(CC(=O)O)c3ccccc23)C(=O)N1C [Example 11086] ({CH2CO}-Y[NMeA]NP[Dap]Q[Hyp]WS[Trp(1-CH2COOH)][NMeNle][NMeNle]LC-X14; thioether N-14)

# Same assay, conditions: inhibition of PD-1-Ig binding to PD-L1-TVMV-His; value given as range class; read-out: HTRF IC50
row,SMILES,pIC50
1,CCCC[C@H]1C(=O)N(C)[C@@H](CCCC)C(=O)N[C@@H](CC(C)C)C(=O)N[C@H](C(=O)NCCCCCCCCCCC(=O)O)CSCC(=O)N[C@@H](Cc2ccc(O)cc2)C(=O)N(C)[C@@H](C)C(=O)N[C@@H](CC(N)=O)C(=O)N2CCC[C@H]2C(=O)N[C@@H](Cc2cnc[nH]2)C(=O)N[C@@H](CCC(=O)O)C(=O)N2C[C@H](O)C[C@H]2C(=O)N[C@@H](Cc2c[nH]c3ccccc23)C(=O)N[C@@H](CCN)C(=O)N[C@@H](CC2=CC(CC(=O)O)c3ccccc32)C(=O)N1C (stereo partly shown) [Example 11076] ({CH2CO}-Y[NMeA]NPHE[Hyp]W[Dab][Ala(1-CH2COOH-inden-3-yl)][NMeNle][NMeNle]LC[Aun]-OH; thioether N-14),7.00 to 8.00
2,CCCC[C@H]1C(=O)N(C)[C@@H](CCCC)C(=O)N[C@@H](CC(C)C)C(=O)N[C@H](C(=O)NCC(=O)NCC(=O)NCC(=O)NCCCCCCCCCCC(=O)O)CSCC(=O)N[C@@H](Cc2ccc(O)cc2)C(=O)N(C)[C@@H](C)C(=O)N[C@@H](CC(N)=O)C(=O)N2CCC[C@H]2C(=O)N[C@@H](Cc2cnc[nH]2)C(=O)N[C@@H](CCC(=O)O)C(=O)N2C[C@H](O)C[C@H]2C(=O)N[C@@H](Cc2c[nH]c3ccccc23)C(=O)N[C@@H](CCN)C(=O)N[C@@H](Cc2cn(CC(=O)O)c3ccccc23)C(=O)N1C [Example 11079] ({CH2CO}-Y[NMeA]NPHE[Hyp]W[Dab][Trp(1-CH2COOH)][NMeNle][NMeNle]LCGGG[Aun]-OH; thioether N-14),7.00 to 8.00
3,CCCC[C@H]1C(=O)N(C)[C@@H](CCCC)C(=O)N[C@@H](CC(C)C)C(=O)N[C@H](C(=O)NCCCCCCCCCCC(=O)O)CSCC(=O)N[C@@H](Cc2ccc(O)cc2)C(=O)N(C)[C@@H](C)C(=O)N[C@@H](CC(N)=O)C(=O)N2CCC[C@H]2C(=O)N[C@@H](CO)C(=O)N[C@@H](CCC(N)=O)C(=O)N2C[C@H](O)C[C@H]2C(=O)N[C@@H](Cc2c[nH]c3ccccc23)C(=O)N[C@@H](CO)C(=O)N[C@@H](Cc2cn(CC(=O)O)c3ccccc23)C(=O)N1C [Example 11082] ({CH2CO}-Y[NMeA]NPSQ[Hyp]WS[Trp(1-CH2COOH)][NMeNle][NMeNle]LC[Aun]-OH; thioether N-14),7.00 to 8.00
4,CCCC[C@H]1C(=O)N(C)[C@@H](CCCC)C(=O)N[C@@H](CC(C)C)C(=O)N[C@H](C(=O)NCC(=O)NCCCCCCCCCCC(=O)O)CSCC(=O)N[C@@H](Cc2ccc(O)cc2)C(=O)N(C)[C@@H](C)C(=O)N[C@@H](CC(N)=O)C(=O)N2CCC[C@H]2C(=O)N[C@@H](CO)C(=O)N[C@@H](CCC(N)=O)C(=O)N2C[C@H](O)C[C@H]2C(=O)N[C@@H](Cc2c[nH]c3ccccc23)C(=O)N[C@@H](CO)C(=O)N[C@@H](Cc2cn(CC(=O)O)c3ccccc23)C(=O)N1C [Example 11084] ({CH2CO}-Y[NMeA]NPSQ[Hyp]WS[Trp(1-CH2COOH)][NMeNle][NMeNle]LCG[Aun]-OH; thioether N-14),7.00 to 8.00
5,CCCC[C@H]1C(=O)N(C)[C@@H](CCCC)C(=O)N[C@@H](CC(C)C)C(=O)N[C@H](C(=O)NCCOCCOCCOCC(=O)NCCCCCCCCCCC(=O)O)CSCC(=O)N[C@@H](Cc2ccc(O)cc2)C(=O)N(C)[C@@H](C)C(=O)N[C@@H](CC(N)=O)C(=O)N2CCC[C@H]2C(=O)N[C@@H](CO)C(=O)N[C@@H](CCC(N)=O)C(=O)N2C[C@H](O)C[C@H]2C(=O)N[C@@H](Cc2c[nH]c3ccccc23)C(=O)N[C@@H](CO)C(=O)N[C@@H](Cc2cn(CC(=O)O)c3ccccc23)C(=O)N1C [Example 11085] ({CH2CO}-Y[NMeA]NPSQ[Hyp]WS[Trp(1-CH2COOH)][NMeNle][NMeNle]LC[AEEEA][Aun]-OH; thioether N-14),7.00 to 8.00
6,CCCC[C@H]1C(=O)N(C)[C@@H](CCCC)C(=O)N[C@@H](CC(C)C)C(=O)N[C@H](C(=O)NCCCOCCOCCOCCCNC(=O)CCC(=O)NCCCCCCCCCCC(=O)NCCCCCCCCCCC(=O)O)CSCC(=O)N[C@@H](Cc2ccc(O)cc2)C(=O)N(C)[C@@H](C)C(=O)N[C@@H](CC(N)=O)C(=O)N2CCC[C@H]2C(=O)N[C@@H](CN)C(=O)N[C@@H](CCC(N)=O)C(=O)N2C[C@H](O)C[C@H]2C(=O)N[C@@H](Cc2c[nH]c3ccccc23)C(=O)N[C@@H](CO)C(=O)N[C@@H](Cc2cn(CC(=O)O)c3ccccc23)C(=O)N1C [Example 11087] ({CH2CO}-Y[NMeA]NP[Dap]Q[Hyp]WS[Trp(1-CH2COOH)][NMeNle][NMeNle]LC-X15; thioether N-14),7.00 to 8.00
7,CCCC[C@H]1C(=O)N(C)[C@@H](CCCC)C(=O)N[C@@H](CC(C)C)C(=O)N[C@H](C(=O)NCCCOCCOCCOCCCNC(=O)CCC(=O)NCCCOCCOCCOCCCNC(=O)CCC(=O)NCCCCCCCCCCC(=O)O)CSCC(=O)N[C@@H](Cc2ccc(O)cc2)C(=O)N(C)[C@@H](C)C(=O)N[C@@H](CC(N)=O)C(=O)N2CCC[C@H]2C(=O)N[C@@H](CN)C(=O)N[C@@H](CCC(N)=O)C(=O)N2C[C@H](O)C[C@H]2C(=O)N[C@@H](Cc2c[nH]c3ccccc23)C(=O)N[C@@H](CO)C(=O)N[C@@H](Cc2cn(CC(=O)O)c3ccccc23)C(=O)N1C [Example 11088] ({CH2CO}-Y[NMeA]NP[Dap]Q[Hyp]WS[Trp(1-CH2COOH)][NMeNle][NMeNle]LC-X28; thioether N-14),5.80 to 7.00

# The next lines start with the values.
row,pIC50,SMILES
1,8.00 to 9.52,CCCC[C@H]1C(=O)N(C)[C@@H](CCCC)C(=O)N[C@@H](CC(C)C)C(=O)N[C@H](C(=O)NCC(=O)NCCCCCCCCCCC(=O)O)CSCC(=O)N[C@@H](Cc2ccc(O)cc2)C(=O)N(C)[C@@H](C)C(=O)N[C@@H](CC(N)=O)C(=O)N2CCC[C@H]2C(=O)N[C@@H](Cc2cnc[nH]2)C(=O)N[C@@H](CCC(=O)O)C(=O)N2C[C@H](O)C[C@H]2C(=O)N[C@@H](Cc2c[nH]c3ccccc23)C(=O)N[C@@H](CCN)C(=O)N[C@@H](CC2=CC(CC(=O)O)c3ccccc32)C(=O)N1C (stereo partly shown) [Example 11077] ({CH2CO}-Y[NMeA]NPHE[Hyp]W[Dab][Ala(1-CH2COOH-inden-3-yl)][NMeNle][NMeNle]LCG[Aun]-OH; thioether N-14)
2,8.00 to 9.52,CCCC[C@H]1C(=O)N(C)[C@@H](CCCC)C(=O)N[C@@H](CC(C)C)C(=O)N[C@H](C(=O)NCC(=O)NCC(=O)NCCCCCCCCCCC(=O)O)CSCC(=O)N[C@@H](Cc2ccc(O)cc2)C(=O)N(C)[C@@H](C)C(=O)N[C@@H](CC(N)=O)C(=O)N2CCC[C@H]2C(=O)N[C@@H](Cc2cnc[nH]2)C(=O)N[C@@H](CCC(=O)O)C(=O)N2C[C@H](O)C[C@H]2C(=O)N[C@@H](Cc2c[nH]c3ccccc23)C(=O)N[C@@H](CCN)C(=O)N[C@@H](CC2=CC(CC(=O)O)c3ccccc32)C(=O)N1C (stereo partly shown) [Example 11078] ({CH2CO}-Y[NMeA]NPHE[Hyp]W[Dab][Ala(1-CH2COOH-inden-3-yl)][NMeNle][NMeNle]LCGG[Aun]-OH; thioether N-14)
3,7.00 to 8.00,CCCC[C@H]1C(=O)N(C)[C@@H](CCCC)C(=O)N[C@@H](CC(C)C)C(=O)N[C@H](C(=O)NCCCOCCOCCOCCCNC(=O)CCC(=O)NCCCCCCCCCCC(=O)O)CSCC(=O)N[C@@H](Cc2ccc(O)cc2)C(=O)N(C)[C@@H](C)C(=O)N[C@@H](CC(N)=O)C(=O)N2CCC[C@H]2C(=O)N[C@@H](CO)C(=O)N[C@@H](CCC(N)=O)C(=O)N2C[C@H](O)C[C@H]2C(=O)N[C@@H](Cc2c[nH]c3ccccc23)C(=O)N[C@@H](CO)C(=O)N[C@@H](Cc2cn(CC(=O)O)c3ccccc23)C(=O)N1C [Example 11083] ({CH2CO}-Y[NMeA]NPSQ[Hyp]WS[Trp(1-CH2COOH)][NMeNle][NMeNle]LC-X14; thioether N-14)
